Patent US20230066946A1, “1,5-DIPHENYLPYRAZOLYL-3-OXYALKYL ACIDS AND 1-PHENYL-5-THIENYLPYRAZOLYL-3-OXYALKYL ACIDS AND THE USE THEREOF FOR CONTROL OF UNWANTED PLANT GROWTH” (Bayer Aktiengesellschaft, priority 2019, published 2023)

Key:
STEME [1] = experiment: Post-emergence herbicidal action against STEME; assay type: in vivo, Stellaria media; settings: visual rating about 3 weeks after treatment
Summary of the method: (§1)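 Herbicidal effect, rated visually about 3 weeks after treatment as percent versus untreated controls. Test plants in sandy loam had received a foliar application at the one-leaf stage of 1280 or 320 g/ha, formulated as WP or EC with 0.5% additive in 600 litres per hectare water.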

ECHCG [2] = experiment: Post-emergence herbicidal action against ECHCG; assay type: in vivo, Echinochloa crus-galli; settings: 1280 g/ha, post-emergence at one-leaf stage, rated visually after about 3 weeks vs untreated controls
Description: (§2) [table] Seeds of mono- and dicotyledonous weed plants are placed in plastic pots in sandy loam soil (twin sowing with one species each of mono- or dicotyledonous weed plants per pot), covered with soil and cultivated in a greenhouse under controlled growth conditions. 2 to 3 weeks after sowing, the test plants are treated at the one-leaf stage. The compounds of the invention, formulated in the form of wettable powders (WP) or as emulsion concentrates (EC), are applied to the green parts of the plants as aqueous suspension or emulsion with addition of 0.5% additive at a water application rate equivalent to 600 litres per hectare. After the test plants have been kept in the greenhouse under optimum growth conditions for about 3 weeks, the activity of the preparations is rated visually in comparison to untreated controls. For example, 100% activity=the plants have died, 0% activity=like control plants. Tables 5.1-5.16 below show the effects of selected compounds of the general formula (I) according to Tables 1 to 3 on various harmful plants at an application rate corresponding to 1280 or 320 g/ha, which have been obtained by the aforementioned experimental method.

MATIN [3] = experiment: Pre-emergence herbicidal action against MATIN; assay type: in vivo, Matricaria inodora; settings: 1280 g/ha, scored visually after about 3 weeks vs untreated controls
From the text: (§3) Seeds of mono- and dicotyledonous weed plants are placed in plastic pots in sandy loam soil (doubly sown with one species each of mono- or dicotyledonous weed plants per pot) and covered with soil. The compounds of the invention, formulated in the form of wettable powders (WP) or as emulsion concentrates (EC), are then applied onto the surface of the covering soil as aqueous suspension or emulsion with addition of 0.5% additive at a water application rate equivalent to 600 litres per hectare. After the treatment, the pots are placed in a greenhouse and kept under good growth conditions for the trial plants. After about 3 weeks, the effect of the preparations is scored visually in comparison with untreated controls as percentages. For example, 100% activity=the plants have died, 0% activity=like control plants. [table] Tables 4.1-4.15 below show the effects of selected compounds of the general formula (I) according to Tables 1 to 3 on various harmful plants at an application rate corresponding to 1280 or 320 g/ha, which have been obtained by the aforementioned experimental method.

SETVI [4] = experiment: Post-emergence herbicidal action against SETVI; assay type: in vivo, Setaria viridis; settings: 1280 g/ha, post-emergence at one-leaf stage, rated visually after about 3 weeks vs untreated controls
Summary of the method: as §1

AMARE [5] = experiment: Pre-emergence herbicidal action against AMARE; assay type: in vivo, Amaranthus retroflexus; settings: scored visually after about 3 weeks vs untreated controls; for Pre-emergence action against AMARE in %: 1280 g/ha; for Pre-emergence action at 320 g/ha against AMARE in %: 100% = plants have died, 0% = like control plants
Summary of the method: (§4)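 Pre-emergence, sandy loam, pots doubly sown. WP/EC formulations + 0.5% additive, 600 L/ha water, sprayed on soil surface; 1280 or 320 g/ha. Greenhouse ~3 wk; visual % effect vs untreated.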

PHBPU = experiment: Post-emergence herbicidal action against PHBPU; assay type: in vivo, Pharbitis purpurea; settings: 320 g/ha, visual rating about 3 weeks after treatment
Description: as §2

AMARE [6] = experiment: Post-emergence herbicidal action against AMARE; assay type: in vivo, Amaranthus retroflexus; settings: visual rating about 3 weeks after treatment
Summary of the method: as §1

STEME [7] = experiment: Pre-emergence herbicidal action against STEME; assay type: in vivo, Stellaria media; settings: scored visually after about 3 weeks vs untreated controls
Summary of the method: as §4

VIOTR = experiment: Post-emergence herbicidal action against VIOTR; assay type: in vivo, Viola tricolor; settings: 320 g/ha, visual rating about 3 weeks after treatment
Description: as §2

ECHCG [8] = experiment: Pre-emergence herbicidal action against ECHCG; assay type: in vivo, Echinochloa crus-galli; settings: scored visually after about 3 weeks vs untreated controls, 100% = plants have died, 0% = like control plants
Summary of the method: as §4

SETVI [9] = experiment: Pre-emergence herbicidal action against SETVI; assay type: in vivo, Setaria viridis; settings: 1280 g/ha, scored visually after about 3 weeks vs untreated controls
Summary of the method: as §4

POLCO = experiment: Pre-emergence herbicidal action against POLCO; assay type: in vivo, Polygonum convolvulus; settings: 320 g/ha, scored visually after about 3 weeks vs untreated controls
From the text: as §3

VERPE [10] = experiment: Post-emergence herbicidal action against VERPE; assay type: in vivo, Veronica persica; settings: 320 g/ha, visual rating about 3 weeks after treatment
Description: as §2

harmful plants = experiment: Pre-emergence herbicidal action, summary of Tables 4.1-4.15; assay type: in vivo; settings: result in words
From the text: as §3, with “plants.” for “plants. [table] Tables 4.1-4.15 below show the effects of selected compounds of the general formula (I) according to Tables 1 to 3 on various harmful plants at an application rate corresponding to 1280 or 320 g/ha, which have been obtained by the aforementioned experimental method.”
Tables 4.1-4.15 below show the effects of selected compounds of the general formula (I) according to Tables 1 to 3 on various harmful plants at an application rate corresponding to 1280 or 320 g/ha, which have been obtained by the aforementioned experimental method.
For example, compounds no. I-008, I-056, I-057, I-061, I-067, I-070 and I-072 applied by the pre-emergence method have very good action (80% to 100% herbicidal action) against harmful plants such as Alopecurus myosuroides, Amaranthus retroflexus, Matricaria inodora, Polygonum convolvulus, Setaria viridis and Stellaria media at an application rate of 1.28 kg of active substance or less per hectare.

VERPE [11] = experiment: Pre-emergence herbicidal action against VERPE; assay type: in vivo, Veronica persica; settings: 320 g/ha, scored visually after about 3 weeks vs untreated controls
From the text: as §3

MATIN [12] = experiment: Post-emergence herbicidal action against MATIN; assay type: in vivo, Matricaria inodora; settings: 1280 g/ha, visual rating about 3 weeks after treatment
Summary of the method: as §1

Row | Compound | Post-emergence action against STEME in % (STEME [1]; 1280 g/ha) | Post-emergence action against ECHCG in % (ECHCG [2]) | Pre-emergence action against MATIN in % (MATIN [3]) | Post-emergence action against SETVI in % (SETVI [4]) | Pre-emergence action against AMARE in % (AMARE [5]) | Post-emergence action against PHBPU in % (PHBPU) | Post-emergence action against AMARE in % (AMARE [6]; 1280 g/ha) | Pre-emergence action against STEME in % (STEME [7]; 1280 g/ha) | Post-emergence action against VIOTR in % (VIOTR) | Pre-emergence action at 1280 g/ha against ECHCG in % (ECHCG [8]) | Pre-emergence action against SETVI in % (SETVI [9]) | Pre-emergence action at 320 g/ha against AMARE in % (AMARE [5]) | Pre-emergence action against POLCO in % (POLCO) | Post-emergence action against AMARE in % (AMARE [6]; 320 g/ha) | Post-emergence action against VERPE in % (VERPE [10]) | herbicidal efficacy against harmful plants in the case of pre-emergence treatment (harmful plants) | Pre-emergence action against VERPE in % (VERPE [11]) | Pre-emergence action against STEME in % (STEME [7]; 320 g/ha) | Post-emergence action against MATIN in % (MATIN [12]) | Post-emergence action against STEME in % (STEME [1]; 320 g/ha)
1 | COC(=O)COc1nn(-c2cccc(F)c2)c(-c2ccccc2)c1Cl [I-016] | 80% | 80% | 90% | 80% | 100% | 80% | 80% | 80% | – | – | – | – | – | – | – | – | – | – | – | –
2 | COC(=O)COc1nn(-c2cccc(Cl)c2)c(-c2ccc(F)c(F)c2)c1Cl [I-026] | – | – | 90% | – | 80% | 90% | 80% | – | 80% | – | – | – | – | – | – | – | – | – | – | –
3 | C=CCNC(=O)COc1nn(-c2ccccc2F)c(-c2ccccc2)c1Br [III-003] | – | 100% | – | 100% | 100% | 80% | 100% | 100% | – | 100% | 100% | 100% | 100% | 80% | 80% | good herbicidal efficacy | 100% | 100% | – | –
4 | C=CCNC(=O)COc1nn(-c2ccccc2F)c(-c2ccc(F)c(F)c2)c1Br [III-053] | 100% | 100% | – | 100% | 90% | – | – | 100% | – | 100% | 100% | – | – | – | – | good herbicidal efficacy | – | – | 90% | –
5 | COC(=O)COc1nn(-c2cccc(F)c2)c(-c2ccccc2)c1C#N [I-023] | 80% | – | 100% | – | 90% | 80% | 80% | – | 80% | – | – | 90% | – | – | – | – | 90% | – | 80% | 80%
6 | O=C(O)COc1nn(-c2ccc(F)cc2)c(-c2cccc(F)c2)c1[N+](=O)[O-] [I-121] | 100% | – | – | – | 90% | – | – | 100% | – | 100% | 100% | – | – | – | – | good herbicidal efficacy | – | – | 90% | –
7 | C=CCNC(=O)COc1nn(-c2ccc(F)cc2)c(-c2cccc(F)c2)c1Cl [III-022] | 100% | 90% | – | 100% | 90% | – | 90% | 100% | – | 100% | 100% | – | – | – | – | good herbicidal efficacy | – | – | – | –
